Here are results for one compound from publication PMC8160456, “Molecular Mechanism of Citrate Efflux by the Mitochondrial Citrate Transporter CT in Filamentous Fungus Mucor circinelloides WJ11” (Frontiers in Microbiology, 2021).

The target in this experiment is T1, CT (mitochondrial citrate transporter) (Mucor circinelloides, UniProt S2JNX7).
T1 construct: gene HMPREF1544_02933; complete ct gene, codon-optimised, pET30a(+) NdeI-ATG-ct-Histag-stop-HindIII (C-terminal His tag kept); E. coli BL21(DE3) inclusion bodies, urea-solubilised, Ni column, renatured, reconstituted in liposomes; about 32 kDa; three Mtc domains 10-104, 106-199, 209-296
T1 sequence (S2JNX7 1-301): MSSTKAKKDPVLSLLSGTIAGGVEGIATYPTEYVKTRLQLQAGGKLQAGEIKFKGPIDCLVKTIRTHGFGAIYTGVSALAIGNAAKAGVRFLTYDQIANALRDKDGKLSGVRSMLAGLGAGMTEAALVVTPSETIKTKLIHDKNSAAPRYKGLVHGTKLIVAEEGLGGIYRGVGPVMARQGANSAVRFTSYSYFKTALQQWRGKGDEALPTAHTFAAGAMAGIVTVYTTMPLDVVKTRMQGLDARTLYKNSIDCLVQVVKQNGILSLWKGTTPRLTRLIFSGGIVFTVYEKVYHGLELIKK
As to the kind of experiment: inhibition of […]citrate/citrate exchange in CT-reconstituted liposomes. Format: biochemical. The conditions noted are these: 20 mM inhibitor; 0.01 mM [14C]citrate outside, 10 mM citrate inside; 2 min.

For `Cc1ncc(COP(=O)(O)O)c(C=O)c1O` [pyridoxal-5'-phosphate], the “inhibition at 20 mM” value was “This activity was inhibited strongly by PLP”.
